# Where two headings read alike, the source gives them in different places. Peptide text beside a SMILES is read from it.
# Legend:
# [1] = system: Candida albicans ATCC 10231; experiment: antifungal assay, growth inhibition of C. albicans (OD 620 nm); type: cell-based
# Method: Antifungal studies were carried out Candida albicans ATCC 10231 as the target microbe. The yeast culture was spread onto YM agar plates and incubated at 30° C. for 48 hours. Three colonies of this culture (about 1 mm in diameter each) were then inoculated in 5 ml of 1 X PBS solution. The suspension was vortexed and diluted 10-fold in YM broth, for an approximate final concentration of 10^5 to 5×10^5 CFU (colony forming units)/ml.
# Actual concentrations of yeast cultures were determined by plating 100 μl of different solutions of the culture solution (10^-3, 10^-4 and 10^-5) onto solid YM agar plates. After 48 hours of incubation at 30° C., CFU formed were counted from each plate.
# The assays were carried out in 96-well tissue culture plates. Eight wells containing only medium of YM broth served as negative controls, whereas eight wells containing medium and yeast culture served as positive controls. These controls were used to detect possible medium contamination and to provide a measure of uninhibited growth of the yeast.
# For screening studies, oligopeptide mixtures were added to the yeast suspension in duplicates to reach a final concentration of 1.5 mg/ml. […] The plates were incubated over a period of 48 hours at 30° C., and the optical density (OD) at 24 and 48 hours was determined at 620 nm.
# [2] = system: Herpes Simplex Virus Type 1 (HSV-1); experiment: HSV-1 plaque assay on Vero cell monolayers; type: cell-based; conditions: Table 10
# Method: The screenings utilized a plaque assay in which 24-well plates containing Vero (monkey kidney) cell monolayers were overlaid with 400 μg/ml of each peptide or mixture in M-199V (medium and newborn calf serum). The plates were incubated for two hours at 37° C.
# Each well was thereafter aspirated and immediately overlaid with 400 μg of peptide or mixture in DMEM-O (Dulbeco's modified Eagle's medium and pooled human gamma globulin) and incubated for 48 hours. […] At 48 hours, the plate wells were aspirated, rinsed, fixed and stained. Plaque formation, if present, was tallied and recorded.
# The PFU's per well of six controls were averaged and represent 100 percent plaque formation at approximately 50 PFU's per well. The average PFU's per screened peptide or mixture (duplicate wells) quantitatively represented percent viral inhibition of plaque formation or infection. For example, a count of 10 PFU's of a screened peptide compared to the control of 50 PFU's would represent 20 percent plaque formation and 80 percent plaque inhibition.
# [3] = system: Vero (monkey kidney) cell monolayers; type: cell-based
# mAb 19B10 = experiment: competitive ELISA, inhibition of mAb 19B10 binding to plate-adsorbed peptide SEQ ID NO:89; conditions: as the positions were defined
# Text: The antigenic determinant recognized by mAb 19B10 has the sequence Asp-Val-Pro-Asp-Tyr-Ala (SEQ ID NO:88). […].
# Oligopeptide sets were screened in the general manner discussed previously, except that rather than using 400 mixture sets whose first two positions were defined and whose last four were equimolar mixtures for the first screen, 324 such N-acetyl C-amide sets were used based on mixtures of eighteen amino acids. Tryptophan and cysteine were not included with these mixture.
# [4] = system: Staphylococcus aureus (ATCC 29213); experiment: microbe, parasite or virus in culture
# Method: (§1) Escherichia coli (ATCC 25922) was used as Gram-negative (-) and Staphylococcus aureus (ATCC 29213) as Gram-positive (+) bacteria. Bacteria were grown overnight (about 18 hours) at 37° C. in Mueller-Hinton (MH) broth. This culture was reinoculated and incubated at 37° C. to reach the exponential phase of bacteria growth; i.e., a final bacterial suspension containing about 10^5 to 5×10^5 colony-forming units (CFU)/ml. The concentration of cells was established by plating 100 μl of different dilutions of the culture solution (e.g., 10^-2, 10^-3 and 10^-4) onto solid agar plates. Following an overnight (about 18 hours) incubation at 37° C., the CFU thus formed were counted on each agar plate.
# (§2) 96-Well tissue culture plates were utilized, with eight wells per plate containing only medium as control blanks, whereas eight other wells contained medium plus cells as a positive growth control. These controls were used to detect possible medium contamination and to provide a measure of uninhibited growth of the microorganisms.
# (§3) For initial screening studies, oligopeptide sets were added to the bacterial suspension to reach a final concentration of 1 mg/ml.
# (§4) The plates were incubated overnight (about 18 hours) at 37° C., and the optical density (OD) determined at 620 nm after different times of incubation.
# human red blood cells = type: cell-based
# Method: Assays were carried out in 96-well culture tissue plates. Four wells per plate contained 125 μl of a non-peptide positive control of the surfactant Triton X-100 (poly)oxyethanol (9) octyl phenyl ether; 1 percent in deionized water!, and four wells per plate contained 115 μl of a control blank of phosphate-buffered saline (PBS). The hemolytic peptide melittin was used as comparative control. The controls served to detect possible contamination and to calculate the percent hemolysis of each peptide.
# Human red blood cells (RBC's) were washed with PBS and centrifuged to separate them from the serum. The cells are then resuspended in PBS to a final suspension of 0.5 percent RBC. This suspension (125 μl) was added to the peptide mixture and control solutions. The plates were incubated at 37° C. for one hour and centrifuged at 2800 rpm for five minutes. The release of hemoglobin resulting from the cell lysis was determined by measuring the OD at 414 nm of 100 μl of the supernatant.
# [5] = system: Escherichia coli (ATCC 25922); experiment: antimicrobial assay, growth inhibition of E. coli (OD 620 nm); type: cell-based; conditions: Tables 1 and 2
# Method: as §1, §2, §3, §4
# [6] = target: monoclonal antibody (mAb) 125-10F3; experiment: competitive ELISA, inhibition of mAb 125-10F3 binding to plate-adsorbed polypeptide SEQ ID NO:1
# Text: Monoclonal antibody (mAb) 125-10F3 was used in these studies, which binds specifically to a 13-residue polypeptide […](SEQ ID NO:1) Appel et al., J. Immunol., 144:976-983 (1990)!. The antigenic determinant recognized by the mAb is Pro-Tyr-Pro-Asn-Leu-Ser (SEQ ID NO:2), determined previously using individual omission analogs of the polypeptide as is seen in FIG. 2.
# The peptide library was screened utilizing a competitive ELISA system that measured the inhibition in solution of the binding of the mAb to polypeptide SEQ ID NO:1 adsorbed to an assay plate by each individual element of the synthetic combinatorial library. […] Screening data for an exemplary eighteen of the 400 sets are shown in FIG. 4, with arrows at the two best binding sequences.
# The concentration of the inhibiting oligopeptide sets at which 50 percent of the mAb was inhibited in its binding to the polypeptide (IC-50) was determined.
# [7] = 7-mer studies, Tables 5 and 6 and parent 6-mer
# [8] = later study completing the Ac-Tyr-Pro series ("in this study"), read-out: IC-50
compound,measurement,setting,value
"C[C@@H]1[C@H](O)[C@@H](C)/C=C/C=C/CC/C=C/C=C/C=C/C=C/[C@H](O[C@@H]2O[C@H](C)[C@@H](O)[C@H](N)[C@@H]2O)C[C@@H]2O[C@](O)(C[C@@H](O)[C@H](O)CC[C@@H](O)C[C@@H](O)C[C@@H](O)CC(=O)O[C@H]1C)C[C@H](O)[C@H]2C(=O)O [Nystatin, reference compound]",MIC,"[1]; Candida albicans, ATCC10231",2 to 4 µg/mL
CC(=O)N[C@@H](CCCNC(=N)N)C(=O)N[C@@H](CCCNC(=N)N)C(=O)N[C@@H](Cc1c[nH]c2ccccc12)C(=O)N[C@@H](Cc1c[nH]c2ccccc12)C(=O)N[C@@H](CS)C(=O)N[C@@H](CS)C(N)=O [RRWWCC] (Ac-RRWWCC-NH2),concentration for 100 Percent Inhibition,[2],1 µg/mL
same,Toxic Concentration,[3],10 µg/mL
Ac-DVPDYA-NH2 [Ac-Asp-Val-Pro-Asp-Tyr-Ala-NH2],IC50,mAb 19B10,30 nM
Ac-FRWLLF-NH2 [FRWLLF],IC-50,[4]; Tables 3 and 4,11 µg/mL
same,MIC,[4]; Tables 3 and 4,9 to 18 µg/mL
same,HD-50,human red blood cells,34 µg/mL
Ac-FRWLLK-NH2 [FRWLLK],IC-50,[5],5 µg/mL
same,MIC,[5],5 to 10 µg/mL
same,HD-50,human red blood cells,356 µg/mL
Ac-FRWLLR-NH2 [FRWLLR],IC-50,[5],4 µg/mL
same,MIC,[5],5 to 10 µg/mL
same,IC-50,[4]; Tables 3 and 4,13 µg/mL
same,MIC,[4]; Tables 3 and 4,24 to 48 µg/mL
same,HD-50,human red blood cells,171 µg/mL
Ac-IRRWWRF-NH2 [IRRWWRF],IC-50,[4]; [7],4.7 µg/mL
same,MIC,[4]; [7],4 to 8 µg/mL
same,HD-50,human red blood cells,142 µg/mL
Ac-KRRWWRF-NH2 [KRRWWRF],IC-50,[1]; Table 9,40 µg/mL
same,MIC,[1]; Table 9,45 to 62 µg/mL
Ac-PYPNLS-NH2 [Ac-Pro-Tyr-Pro-Asn-Leu-Ser-NH2],IC50,"[6]; iterative screening and control study of Example 2, read-out: IC-50 (concentration at which 50 percent of the mAb was inhibited in its binding to the polypeptide)",10 nM
same,IC50,[6]; [8],40 nM
Ac-RRWWCA-NH2 [RRWWCA],IC-50,[4]; Tables 3 and 4,8.4 µg/mL
same,MIC,[4]; Tables 3 and 4,9 to 18 µg/mL
same,concentration for 100 Percent Inhibition,[2],1 µg/mL
same,Toxic Concentration,[3],25 µg/mL
Ac-RRWWCF-NH2 [RRWWCF],concentration for 100 Percent Inhibition,[2],5 µg/mL
same,Toxic Concentration,[3],10 µg/mL
Ac-RRWWCG-NH2 [RRWWCG],concentration for 100 Percent Inhibition,[2],1 µg/mL
same,Toxic Concentration,[3],10 µg/mL
Ac-RRWWCH-NH2 [RRWWCH],IC-50,[4]; Tables 3 and 4,6.2 µg/mL
same,MIC,[4]; Tables 3 and 4,5.5 to 11 µg/mL
same,HD-50,human red blood cells,128 µg/mL
Ac-RRWWCK-NH2 [RRWWCK],IC-50,[4]; Tables 3 and 4,5.5 µg/mL
same,MIC,[4]; Tables 3 and 4,4.8 to 9.6 µg/mL
same,HD-50,human red blood cells,249 µg/mL
same,concentration for 100 Percent Inhibition,[2],5 µg/mL
same,Toxic Concentration,[3],10 µg/mL
Ac-RRWWCM-NH2 [RRWWCM],concentration for 100 Percent Inhibition,[2],1 µg/mL
same,Toxic Concentration,[3],10 µg/mL
Ac-RRWWCVR-NH2 [RRWWCVR],IC-50,[1]; Table 9,50 µg/mL
same,MIC,[1]; Table 9,50 to 62 µg/mL
Ac-RRWWCW-NH2 [RRWWCW],IC-50,[4]; Tables 3 and 4,4.1 µg/mL
same,MIC,[4]; Tables 3 and 4,4.5 to 9.0 µg/mL
same,HD-50,human red blood cells,11 µg/mL
Ac-RRWWCY-NH2 [RRWWCY],IC-50,[4]; Tables 3 and 4,5.4 µg/mL
same,MIC,[4]; Tables 3 and 4,4.7 to 9.5 µg/mL
same,HD-50,human red blood cells,50 µg/mL
Ac-RRWWRFF-NH2 [RRWWRFF],IC-50,[4]; [7],4.7 µg/mL
same,MIC,[4]; [7],4 to 8 µg/mL
same,HD-50,human red blood cells,106 µg/mL
Ac-RRWWRFK-NH2 [RRWWRFK],IC-50,[1]; Table 9,46 µg/mL
same,MIC,[1]; Table 9,50 to 62 µg/mL
Ac-RRWWRFR-NH2 [RRWWRFR],IC-50,[4]; [7],7.9 µg/mL
same,MIC,[4]; [7],8 to 16 µg/mL
same,IC-50,[1]; Table 9,45 µg/mL
same,MIC,[1]; Table 9,50 to 62 µg/mL
Ac-RRWWRFW-NH2 [RRWWRFW],IC-50,[4]; [7],2.5 µg/mL
same,MIC,[4]; [7],4 to 8 µg/mL
same,HD-50,human red blood cells,59 µg/mL
Ac-RRWWRH-NH2 [RRWWRH],IC-50,[1]; Table 9,30.1 µg/mL
same,MIC,[1]; Table 9,40 to 80 µg/mL
Ac-RRWWRR-NH2 [RRWWRR],IC-50,[1]; Table 9,27.6 µg/mL
same,MIC,[1]; Table 9,30 to 42 µg/mL
same,concentration for 100 Percent Inhibition,[2],1 µg/mL
same,Toxic Concentration,[3],25 µg/mL
Ac-RRWWRW-NH2 [RRWWRW],concentration for 100 Percent Inhibition,[2],1 µg/mL
same,Toxic Concentration,[3],25 µg/mL
Ac-WRRWWRF-NH2 [WRRWWRF],IC-50,[4]; [7],5.4 µg/mL
same,MIC,[4]; [7],4 to 8 µg/mL
same,HD-50,human red blood cells,158 µg/mL
Ac-YPNLSN-NH2 [Ac-Tyr-Pro-Asn-Leu-Ser-Asn-NH2],IC50,[6]; [8],150 nM
same,"IC-50 value difference between the mixture (positions 1-5 of SEQ ID NO:15, position 6 mixture) and the single peptide",[6]; mixture inhibited better,about a factor of four
Ac-YRRWWRF-NH2 [YRRWWRF],IC-50,[4]; [7],4.5 µg/mL
same,MIC,[4]; [7],4 to 8 µg/mL
same,HD-50,human red blood cells,219 µg/mL

# — patent US5504190A, “Equimolar multiple oligomer mixtures, especially oligopeptide mixtures” (priority 1994, dated 1996)
